{"source": "patent EP4806449A1", "about": "“ANTIVIRAL FOOD PRODUCT” (Creaciones Aromáticas Industriales, S.A., priority 2023, dated 2025)", "key": {"human coronavirus 229E [1]": {"system": "human coronavirus 229E", "conditions": "positive control, dose range 0.06-264 µg/ml", "description": "(§4) In this study, the ability of the product object of the invention to inhibit the infectivity of human coronavirus 229E was determined. To that end, different concentrations of grape extract were incubated together with a defined concentration of the virus of interest for 30 minutes. Exposure of host cells to the virus causes the virus to replicate within the cells, which produces a cytopathic effect on the cells that is quantified by means of a cell viability assay after 5 days of exposure.\n(§5) The MRC-5 cell line (lung-derived fibroblasts) from the American Type Culture Collection (ATCC) (CCL-171) was used. […]\n(§6) A stock solution of the test substance was prepared in dimethyl sulfoxide (DMSO) at 100 mg/ml. […] Next, 0.25 ml of each dilution were mixed with 0.25 ml of a 229E inoculum diluted in 2% FBS EMEM medium, with the inoculum at an infectious concentration of 1000 TCID50/ml and the maximum concentration of the extract at 1 mg/ml (concentration range analysed in the medium: 7.81-1000 µg/ml). […]\n(§7) To that end, a stock solution of the test substance was prepared in dimethyl sulfoxide (DMSO) at 50 mg/ml. […] Next, 0.25 ml of each dilution were mixed with 0.25 ml of a 229E inoculum diluted in 2% FBS EMEM medium, with the inoculum at an infectious concentration of 1000 TCID50/ml and the maximum concentration of the extract at 1 mg/ml (concentration range analysed in the medium: 0.78125 µg/ml - 100 µg/ml). […]"}, "MRC-5 cells": {"system": "MRC-5 cells", "assay": "Toxicity controls without virus (MTT cell viability)", "type": "cell-based", "conditions": "MRC-5 cells without 229E virus; 4.5h treatment; MTT after 5 days", "protocol": "(§1) The MRC-5 cell line (lung-derived fibroblasts) from the American Type Culture Collection (ATCC) (CCL-171) was used. Cells were kept at 37°C and 5% CO2 in Eagle minimum essential medium (EMEM) supplemented with 10% foetal bovine serum (FBS) and antibiotics, trypsinising every 3-4 days, before reaching 90% confluence. Coronavirus 229E was obtained from the ATCC (VR-740) and amplified in MRC-5 cells, according to the ATCC protocol.\n(§2) In both experiments, 5 days post-infection, differences in cell viability associated with the cytopathic effect of the virus or toxicity of the treatments were analysed by means of the MTT assay. The MTT assay is a colorimetric assay that measures the activity of enzymes that transform the MTT (methylthiazolyldiphenyl-tetrazolium bromide) molecule to formazan, purple in colour. Briefly, the medium was aspirated from the wells and 0.1 ml of 1 mg/ml MTT solution in EMEM was added to each well, and incubated at 37°C for 2 hours. Next, the MTT solution was aspirated, formazan crystals were dissolved in 0.1 ml of DMSO and absorbance was read at 570 nm (reference 660 nm). The mean absorbance values of the uninfected controls was considered to be 100% cell viability.\n(§3) In order to evaluate the results, the following variables were calculated: • CC50: Half maximal cytotoxic concentration, which is the concentration of the compound of interest causing 50% toxicity. […]"}, "[2]": {"assay": "Toxicity controls without virus (MTT cell viability)", "type": "cell-based", "conditions": "human; MRC-5 cells without 229E virus; 4.5h treatment; MTT after 5 days", "protocol": "as §1, §2, §3"}, "human coronavirus 229E [3]": {"system": "human coronavirus 229E", "assay": "microbe, parasite or virus in culture", "conditions": "MRC5", "description": "as §4, §5, §6, §7"}}, "data": [{"smiles": "CCN(CC)CCCC(C)Nc1ccnc2cc(Cl)ccc12", "note": "(stereo not shown) [Chloroquine, chloroquine]", "values": [{"measurement": "clear antiviral effect starting from", "setting": "human coronavirus 229E [1]", "value": "≥ 16.5", "unit": "µg/mL"}, {"measurement": "CC50", "setting": "MRC-5 cells", "value": ">264", "unit": "µg/mL"}, {"measurement": "CC50 at 4.5 h", "setting": "[2]", "value": "> 264", "unit": "µg/mL"}, {"measurement": "EC50", "setting": "human coronavirus 229E [3]", "value": 5.96, "unit": "µg/mL"}]}]}
